Reference: patent US8613914B2, “Peptidomimetic sulfamide compounds and antiviral uses thereof” (Novartis AG, priority 2009, dated 2013)
pIC50: −log10 of the molar value.

Biological target: HCV NS3-4A serine protease (full-length NS3-4A protein) (Hepatitis C virus genotype 1a (isolate 1) (HCV), UniProt P26664)
Assay: HCV NS3-4A protease assay
Type: biochemical, HCV genotype 1a
Settings: strain HCV-1, fluorogenic peptide substrate, read-out: Protease assay Ex. 12 IC50
Method: The inhibitory activity of certain compounds of Table A against HCV NS3-4A serine protease is determined in a homogenous assay using the full-length NS3-4A protein (genotype 1a, strain HCV-1) and a commercially available internally-quenched fluorogenic peptide substrate as described by Taliani, M., et al. 1996 Anal. Biochem. 240:60-67, which is incorporated by reference in its entirety.

Chain of HCV NS3-4A serine protease (full-length NS3-4A protein) (P26664 1027-1657): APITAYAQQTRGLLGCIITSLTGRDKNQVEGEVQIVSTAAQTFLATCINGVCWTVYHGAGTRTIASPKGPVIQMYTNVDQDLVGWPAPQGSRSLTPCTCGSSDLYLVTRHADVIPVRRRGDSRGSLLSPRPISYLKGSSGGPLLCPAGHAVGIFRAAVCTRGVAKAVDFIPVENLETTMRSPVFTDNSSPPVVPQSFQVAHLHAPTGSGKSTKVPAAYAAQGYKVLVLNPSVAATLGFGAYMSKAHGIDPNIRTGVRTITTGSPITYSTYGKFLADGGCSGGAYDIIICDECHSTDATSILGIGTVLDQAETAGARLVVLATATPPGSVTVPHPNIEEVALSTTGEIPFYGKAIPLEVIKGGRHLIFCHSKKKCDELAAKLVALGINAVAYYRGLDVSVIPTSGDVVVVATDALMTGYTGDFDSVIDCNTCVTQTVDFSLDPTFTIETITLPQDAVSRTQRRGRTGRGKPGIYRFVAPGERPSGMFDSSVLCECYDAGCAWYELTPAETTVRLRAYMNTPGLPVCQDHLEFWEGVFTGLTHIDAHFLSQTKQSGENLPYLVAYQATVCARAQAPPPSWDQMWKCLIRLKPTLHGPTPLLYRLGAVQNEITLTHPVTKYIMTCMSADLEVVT
Chain of HCV NS3-4A serine protease (full-length NS3-4A protein) (P26664 1658-1711 partner): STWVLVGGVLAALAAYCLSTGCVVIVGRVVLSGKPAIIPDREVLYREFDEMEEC

SMILES	pIC50
C=C[C@@H]1C[C@]1(NC(=O)[C@@H]1C[C@@]2(CN1C(=O)[C@@H](NC(=O)[C@@H](NC(=O)[C@@H]1CCCN1CC)C1(C)CCCCC1)C1(C)CCOCC1)C(C)(C)C21CCC1)C(=O)NS(=O)(=O)N1CCCC1 [Compound 146, (5R,8S)-7-[(2S)-2-{[(2S)-2-({[(2S)-1-ethylpyrrolidin-2-yl]carbonyl}amino)-2-(1-methylcyclohexyl)acetyl]amino}-2-(4-methyltetrahydro-2H-pyran-4-yl)acetyl]-10,10-dimethyl-N-{(1R,2S)-1-[(pyrrolidin-1-ylsulfonyl)carbamoyl]-2-vinylcyclopropyl}-7-azadispiro[3.0.4.1]decane-8-carboxamide]	8.52
C=C[C@@H]1C[C@]1(NC(=O)[C@@H]1C[C@@]2(CN1C(=O)[C@@H](NC(=O)[C@@H](NC(=O)c1cccnc1N(C)C)C1CCCCC1)C(C)(C)C)C(C)(C)C21CCC1)C(=O)NS(=O)(=O)N1CCCC1 [Compound 70, (5R,8S)-7-[(2S)-2-{[(2S)-2-cyclohexyl-2-({[2-(dimethylamino)pyridin-3-yl]carbonyl}amino)acetyl]amino}-3,3-dimethylbutanoyl]-10,10-dimethyl-N-{(1R,2S)-1-[(pyrrolidin-1-ylsulfonyl)carbamoyl]-2-vinylcyclopropyl}-7-azadispiro[3.0.4.1]decane-8-carboxamide]	7.46
C=C[C@@H]1C[C@]1(NC(=O)[C@@H]1C[C@@]2(CN1C(=O)[C@@H](NC(=O)[C@@H](NC(=O)[C@@H]1CCCCN1CC)C1CCCC1)C(C)(C)C)C(C)(C)C21CCC1)C(=O)NS(=O)(=O)N(CC)CC [Compound 81, (5R,8S)-7-[(2S)-2-{[(2S)-2-cyclopentyl-2-({[(2S)-1-ethylpiperidin-2-yl]carbonyl}amino)acetyl]amino}-3,3-dimethylbutanoyl]-N-[(1R,2S)-1-{[(diethylamino)sulfonyl]carbamoyl}-2-vinylcyclopropyl]-10,10-dimethyl-7-azadispiro[3.0.4.1]decane-8-carboxamide]	8.40
C=C[C@@H]1C[C@]1(NC(=O)[C@@H]1C[C@@]2(CN1C(=O)[C@@H](NC(=O)[C@@H](NC(=O)[C@@H]1CCCCN1C(C)C)C1CCCCC1)C(C)(C)C)C(C)(C)C21CCC1)C(=O)NS(=O)(=O)N(C)C1CC1 [Compound 53, (5R,8S)-7-[(2S)-2-{[(2S)-2-cyclohexyl-2-({[(2S)-1-isopropylpiperidin-2-yl]carbonyl}amino)acetyl]amino}-3,3-dimethylbutanoyl]-N-[(1R,2S)-1-({[cyclopropyl(methyl)amino]sulfonyl}carbamoyl)-2-vinylcyclopropyl]-10,10-dimethyl-7-azadispiro[3.0.4.1]decane-8-carboxamide]	8.77
C=C[C@@H]1C[C@]1(NC(=O)[C@@H]1C[C@@]2(CN1C(=O)[C@@H](NC(=O)OC(C)(C)C)C(C)(C)C)C(C)(C)C21CCC1)C(=O)NS(=O)(=O)N1CCCC1 [Compound 1, tert-butyl [(1S)-1-{[(5R,8S)-10,10-dimethyl-8-({(1R,2S)-1-[(pyrrolidin-1-ylsulfonyl)carbamoyl]-2-vinylcyclopropyl}carbamoyl)-7-azadispiro[3.0.4.1]dec-7-yl]carbonyl}-2,2-dimethylpropyl]carbamate]	6.40
C=C[C@@H]1C[C@]1(NC(=O)[C@@H]1C[C@@]2(CN1C(=O)[C@@H](NC(=O)[C@@H](NC(=O)[C@@H]1CCCCN1C(C)C)C1CCCCC1)C(C)(C)C)C(C)(C)C21CCC1)C(=O)NS(=O)(=O)N1CC[C@@H](F)C1 [Compound 45, (5R,8S)-7-[(2S)-2-{[(2S)-2-cyclohexyl-2-({[(2S)-1-isopropylpiperidin-2-yl]carbonyl}amino)acetyl]amino}-3,3-dimethylbutanoyl]-N-[(1R,2S)-1-({[(3R)-3-fluoropyrrolidin-1-yl]sulfonyl}carbamoyl)-2-vinylcyclopropyl]-10,10-dimethyl-7-azadispiro[3.0.4.1]decane-8-carboxamide]	9.00
C=C[C@@H]1C[C@]1(NC(=O)[C@@H]1C[C@@]2(CN1C(=O)[C@@H](NC(=O)[C@@H](NC(=O)[C@@H]1CCCCN1C(C)C)C1CCCCC1)C1CCOCC1)C(C)(C)C21CCC1)C(=O)NS(=O)(=O)N(CC)CC [Compound 84, (5R,8S)-7-[(2S)-2-{[(2S)-2-cyclohexyl-2-({[(2S)-1-isopropylpiperidin-2-yl]carbonyl}amino)acetyl]amino}-2-(tetrahydro-2H-pyran-4-yl)acetyl]-N-[(1R,2S)-1-{[(diethylamino)sulfonyl]carbamoyl}-2-vinylcyclopropyl]-10,10-dimethyl-7-azadispiro[3.0.4.1]decane-8-carboxamide]	8.22
C=C[C@@H]1C[C@]1(NC(=O)[C@@H]1C[C@@]2(CN1C(=O)[C@@H](NC(=O)[C@@H](NC(=O)[C@@H]1CCCCN1CCOC)C1CCCCC1)C(C)(C)C)C(C)(C)C21CCC1)C(=O)NS(=O)(=O)N1CCCC1 [Compound 33, (5R,8S)-7-[(2S)-2-{[(2S)-2-cyclohexyl-2-({[(2S)-1-(2-methoxyethyl)piperidin-2-yl]carbonyl}amino)acetyl]amino}-3,3-dimethylbutanoyl]-10,10-dimethyl-N-{(1R,2S)-1-[(pyrrolidin-1-ylsulfonyl)carbamoyl]-2-vinylcyclopropyl}-7-azadispiro[3.0.4.1]decane-8-carboxamide]	8.46
C=C[C@@H]1C[C@]1(NC(=O)[C@@H]1C[C@@]2(CN1C(=O)[C@@H](NC(=O)[C@@H](NC(=O)c1nccc3ccccc13)C1CCCCC1)C(C)(C)C)C(C)(C)C21CCC1)C(=O)NS(=O)(=O)N1CCCC1 [Compound 195, (5R,8S)-7-[(2S)-2-({cyclohexyl[(isoquinolin-1-ylcarbonyl)amino]acetyl}amino)-3,3-dimethylbutanoyl]-10,10-dimethyl-N-{(1R,2S)-1-[(pyrrolidin-1-ylsulfonyl)carbamoyl]-2-vinylcyclopropyl}-7-azadispiro[3.0.4.1]decane-8-carboxamide]	7.12
C=C[C@@H]1C[C@]1(NC(=O)[C@@H]1C[C@@]2(CN1C(=O)[C@@H](NC(=O)[C@@H](NC(=O)c1cnccn1)C1CCCCC1)C(C)(C)C)C(C)(C)C21CCC1)C(=O)NS(=O)(=O)NC(C)(C)C [Compound 166, (5R,8S)-N-[(1R,2S)-1-{[(tert-butylamino)sulfonyl]carbamoyl}-2-vinylcyclopropyl]-7-[(2S)-2-({(2S)-2-cyclohexyl-2-[(pyrazin-2-ylcarbonyl)amino]acetyl}amino)-3,3-dimethylbutanoyl]-10,10-dimethyl-7-azadispiro[3.0.4.1]decane-8-carboxamide]	8.00
C=C[C@@H]1C[C@]1(NC(=O)[C@@H]1C[C@@]2(CN1C(=O)[C@@H](NC(=O)[C@@H](NC(=O)c1cc(C)nn1C(C)(C)C)C1CCCCC1)C(C)(C)C)C(C)(C)C21CCC1)C(=O)NS(=O)(=O)N1CCCC1 [Compound 183, (5R,8S)-7-[(2S)-2-{[{[(1-tert-butyl-3-methyl-1H-pyrazol-5-yl)carbonyl]amino}(cyclohexyl)acetyl]amino}-3,3-dimethylbutanoyl]-10,10-dimethyl-N-{(1R,2S)-1-[(pyrrolidin-1-ylsulfonyl)carbamoyl]-2-vinylcyclopropyl}-7-azadispiro[3.0.4.1]decane-8-carboxamide]	7.02
C=C[C@@H]1C[C@]1(NC(=O)[C@@H]1C[C@@]2(CN1C(=O)[C@@H](NC(=O)[C@@H](NC(=O)[C@H]1CCCCN1C(C)C)C1CCCCC1)C(C)(C)C)C(C)(C)C21CCC1)C(=O)NS(=O)(=O)N1CCCC1 [Compound 47, (5R,8S)-7-[(2S)-2-{[(2S)-2-cyclohexyl-2-({[(2R)-1-isopropylpiperidin-2-yl]carbonyl}amino)acetyl]amino}-3,3-dimethylbutanoyl]-10,10-dimethyl-N-{(1R,2S)-1-[(pyrrolidin-1-ylsulfonyl)carbamoyl]-2-vinylcyclopropyl}-7-azadispiro[3.0.4.1]decane-8-carboxamide]	8.32
C=C[C@@H]1C[C@]1(NC(=O)[C@@H]1C[C@@]2(CN1C(=O)[C@@H](NC(=O)[C@@H](NC(=O)[C@@H]1CCCCN1C(C)C)C1(C)CCCCC1)C1(C)CCCCC1)C(C)(C)C21CCC1)C(=O)NS(=O)(=O)N(CC)CC [Compound 160, (5R,8S)-N-[(1R,2S)-1-{[(diethylamino)sulfonyl]carbamoyl}-2-vinylcyclopropyl]-7-[(2S)-2-{[(2S)-2-({[(2S)-1-isopropylpiperidin-2-yl]carbonyl}amino)-2-(1-methylcyclohexyl)acetyl]amino}-2-(1-methylcyclohexyl)acetyl]-10,10-dimethyl-7-azadispiro[3.0.4.1]decane-8-carboxamide]	8.52
C=C[C@@H]1C[C@]1(NC(=O)[C@@H]1C[C@@]2(CN1C(=O)[C@@H](NC(=O)[C@@H](NC(=O)[C@@H]1CCCN1C(C)C)C1CCCCC1)C(C)(C)C)C(C)(C)C21CCC1)C(=O)NS(=O)(=O)N1CCCC1 [Compound 15, (5R,8S)-7-[(2S)-2-{[(2S)-2-cyclohexyl-2-({[(2S)-1-isopropylpyrrolidin-2-yl]carbonyl}amino)acetyl]amino}-3,3-dimethylbutanoyl]-10,10-dimethyl-N-{(1R,2S)-1-[(pyrrolidin-1-ylsulfonyl)carbamoyl]-2-vinylcyclopropyl}-7-azadispiro[3.0.4.1]decane-8-carboxamide]	8.70
C=C[C@@H]1C[C@]1(NC(=O)[C@@H]1C[C@@]2(CN1C(=O)[C@@H](NC(=O)[C@@H](NC(=O)C(C)(C)N1CCCC1)C1CCCCC1)C(C)(C)C)C(C)(C)C21CCC1)C(=O)NS(=O)(=O)N1CCCC1 [Compound 14, (5R,8S)-7-[(2S)-2-({(2S)-2-cyclohexyl-2-[(2-methyl-2-pyrrolidin-1-ylpropanoyl)amino]acetyl}amino)-3,3-dimethylbutanoyl]-10,10-dimethyl-N-{(1R,2S)-1-[(pyrrolidin-1-ylsulfonyl)carbamoyl]-2-vinylcyclopropyl}-7-azadispiro[3.0.4.1]decane-8-carboxamide]	8.52
